Source: patent US20220127232A1, “HISTONE ACETYLTRANSFERASE MODULATORS AND COMPOSITIONS AND USES THEREOF” (The Trustees of Columbia University in the City of New York, priority 2019, published 2022)
“Also recorded” adds a separate entry of the source.

Legend:
[1] = tested on: mice; experiment: 2 day radial arm water maze (RAWM), spatial short-term memory; format: in vivo
Protocol: Synaptic plasticity is thought to underlie memory formation. RA010115 was also tested in assays aimed at determining whether the compound can be beneficial to two types of memory, short-term spatial memory that can tested through the 2 day radial arm water maze, and contextual fear memory, a type of associative memory that depends upon hippocampal function and is impaired in AD patients. FIG. 27 is a graph showing that RA010115 rescues oTau- and oAβ-induced defects in the 2-day radial arm water maze test of spatial short-term memory. The performance in the RAWM was impaired in mice administered with oAβ (200 nM) oTau (500 nM). […] The performance was not impaired when mice were treated with only RA010115 or vehicle. (ANOVA for repeated measures among all groups at day 2: F(5, 65)=7.092, p<0.0001. One-way ANOVA for block 10: F(5, 65)=7.385, p<0.0001; Bonferroni's p<0.0001 for both oAβ vs. vehicle and oTau vs. vehicle; oAβ vs RA010115 plus oAβ p<0.001 and for oTau vs RA010115 plus oTau p<0.05.

[2] = tested on: hippocampal slices from WT mice; experiment: Long-term potentiation (LTP) in hippocampal slices perfused with oTau or oAβ; format: cell-based
Source text: Synaptic dysfunction is a major hallmark of AD (Histol Histopathol, 1995. 10(2): p. 509-19; herein incorporated by reference in its entirety). An aspect of the drug screening protocol can include a measurement of the effect of compounds onto synaptic function. Amyloid-beta (Aβ) is a toxic peptide that is thought to underlie subtle amnesic changes occurring at early stages of Alzheimer's disease. It impairs both memory and its electrophysiological surrogate, long-term potentiation (LTP). LTP can be examined because it is a type of synaptic plasticity thought to underlie learning and memory. RA010115 can rescue the Aβ-induced reduction of LTP, and other compounds can also be screened to identify those that can re-establish normal LTP. The compounds can be applied for 20 min. Controls can be performed on slices in the absence of Aβ, and mice treated with compound. Tau is another peptide that is involved in cell to cell communication, and impairs both memory and LTP in animal models of AD and other tauopathies. FIG. 26 is a graph showing that RA010115 rescues oligomeric Tau (oTau)- and oligomeric Aβ (o Aβ)-induced LTP deficits. LTP was impaired in hippocampal slices from WT mice perfused with oTau (50 nM) and oAβ (200 nM), whereas there was no impairment in slices treated with RA10115 or vehicle. LTP was restored in slices perfused with RA010115 and either oTau or oAβ. The horizontal solid bar represents oAβ and oTau perfusion while the horizontal dashed bar represents RA010115. The three arrows correspond to the theta-burst stimulation. […]

[3] = tested on: mice; experiment: Contextual fear memory; format: in vivo
Protocol: FIG. 28 is a graph showing that RA010115 rescues oTau- and oAβ-induced defects in contextual fear memory. There is statistical significance when comparing all groups during testing for contextual fear memory at 24 hrs after the electric shock (ANOVA among all groups: F(5, 57)=5.558 p=0.0003). […] The performance was not impaired when mice were treated with only RA010115 or vehicle.

[4] = mice treated with only compound

COc1cccc(OC)c1C(=O)Nc1ccc(Cl)c(C(F)(F)F)c1 [RA010115]
oTau- and oAβ-induced defects in RAWM performance ([1]; mice administered oAβ (200 nM) or oTau (500 nM), compound 5 mg/kg, 5 mg/kg): rescued the deficit; also recorded: rescues
RAWM performance, compound alone [1, 4]: not impaired
LTP in slices treated with compound alone ([2]; no oTau or oAβ): no impairment
oTau- and oAβ-induced LTP deficits ([2]; slices perfused with compound and either oTau (50 nM) or oAβ (200 nM)): restored; also recorded: rescues
oTau- and oAβ-induced defects in contextual fear memory (freezing) ([3]; 24 hrs after the electric shock): rescues
Contextual fear memory performance, compound alone [3, 4]: not impaired
